Measurements published in US20250171438A1 (Agios Pharmaceuticals, Inc., priority 2022, published 2025).

Biological target: T1, human PAH with the R408W mutation (Homo sapiens, UniProt P00439, R408W)
T1 construct: expressed in transfected cells
T1 sequence (P00439 1-452 R408W): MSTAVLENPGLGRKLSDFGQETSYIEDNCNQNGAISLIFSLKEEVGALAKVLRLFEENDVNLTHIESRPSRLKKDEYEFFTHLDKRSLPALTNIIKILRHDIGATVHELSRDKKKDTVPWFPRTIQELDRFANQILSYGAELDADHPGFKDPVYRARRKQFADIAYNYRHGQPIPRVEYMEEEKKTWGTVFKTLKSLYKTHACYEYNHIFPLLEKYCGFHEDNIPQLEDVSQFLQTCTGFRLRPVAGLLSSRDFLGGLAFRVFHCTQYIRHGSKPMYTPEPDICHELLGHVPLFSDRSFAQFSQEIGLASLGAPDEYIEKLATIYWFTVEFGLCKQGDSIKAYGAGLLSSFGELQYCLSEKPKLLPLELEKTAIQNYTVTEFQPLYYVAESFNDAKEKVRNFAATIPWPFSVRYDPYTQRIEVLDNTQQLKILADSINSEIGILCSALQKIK
Experiment: Cell Based Phenylalanine Flux Assay
Details: A375 cells expressing human R408W PAH; 24 hrs with compound; 13C-Tyrosine by LC-MS; average where tested multiple times; read-out: AC50

| SMILES | AC50 [µM] |
| --- | --- |
| O=C(Cc1nc(C(F)(F)F)cs1)N1CCc2[nH]cnc2C1c1nc2cc(F)ccc2s1 (stereo not shown) | 1 to 5 |
| O=C(Cc1nncs1)N1CCc2[nH]cnc2C1c1nc2ccc(F)cc2s1 (stereo not shown) | > 5 |
| c1ccc2oc(N3CCc4[nH]cnc4C3c3nc4ccccc4s3)nc2c1 (stereo not shown) | 1 to 5 |
| O=C(c1nc2ccccc2s1)N1CCc2nc[nH]c2C1c1nc2ccc(Br)cc2s1 (stereo not shown) | > 5 |
| O=C(c1cnc(Br)s1)N1CCc2[nH]cnc2C1c1nc2ccccc2s1 (stereo not shown) | > 5 |
| Cc1ncc(C(=O)N2CCc3[nH]cnc3C2c2nc3ccccc3s2)s1 (stereo not shown) | 1 to 5 |
| Cc1ncsc1C(=O)N1CCc2[nH]cnc2C1c1nc2ccccc2s1 (stereo not shown) | 1 to 5 |
| O=C(c1ncc(Cl)s1)N1CCc2[nH]cnc2C1c1nc2cccc(F)c2s1 (stereo not shown) | 1 to 5 |
| O=C(c1ncc(Cl)s1)N1CCc2[nH]cnc2C1c1nc2ccc(F)cc2s1 (stereo not shown) | 1 to 5 |
| O=C(c1cnn2cc(CCc3ccccc3)ccc12)N1CCc2[nH]cnc2C1c1nc2ccccc2s1 (stereo not shown) | 1 to 5 |
| O=C(c1cnn2cc(Br)ccc12)N1CCc2[nH]cnc2C1c1nc2ccc(F)cc2s1 (stereo not shown) | 1 to 5 |
| O=C(C1CC1F)N1CCc2[nH]cnc2C1c1nc2ccccc2s1 (stereo not shown) [listing 1 of 2 here] | 1 to 5 |
| O=C(C1CC1F)N1CCc2[nH]cnc2C1c1nc2ccccc2s1 (stereo not shown) [listing 2 of 2 here] | 1 to 5 |
| O=C(c1cc2ccccn2n1)N1CCc2nc[nH]c2C1c1nc2ccccc2s1 (stereo not shown) | 1 to 5 |
| O=C(C1CC1)N1CCc2[nH]cnc2C1c1nc2ccc(F)cc2s1 (stereo not shown) | 1 to 5 |
| O=C(C1CC1)N1CCc2[nH]cnc2C1c1nc2cc(F)ccc2s1 (stereo not shown) | 1 to 5 |
| O=C(c1n[nH]c2ccccc12)N1CCc2[nH]cnc2C1c1nc2c(F)cccc2s1 (stereo not shown) | 1 to 5 |
| O=C(c1ccno1)N1CCc2nc[nH]c2C1c1nc2c(F)cccc2s1 (stereo not shown) | 1 to 5 |
| O=C(c1n[nH]c2ccccc12)N1CCc2[nH]cnc2C1c1nc2cc(F)ccc2s1 (stereo not shown) | > 5 |
| Fc1ccc2sc(CN3CCc4[nH]cnc4C3c3nc4cc(F)ccc4s3)nc2c1 (stereo not shown) | > 5 |
| O=C(C1CC1)N1CCc2[nH]cnc2C1c1nc2ccc(Br)cc2s1 (stereo not shown) | 1 to 5 |
| O=C(c1n[nH]c2ccccc12)N1CCc2[nH]cnc2C1c1nc2ccc(F)cc2s1 (stereo not shown) | 1 to 5 |
| O=C(c1cnco1)N1CCc2[nH]cnc2C1c1nc2ccc(F)cc2s1 (stereo not shown) | 1 to 5 |
| O=C(c1cncs1)N1CCc2[nH]cnc2C1c1nc2ccc(F)cc2s1 (stereo not shown) | 1 to 5 |
| Cc1ccc2c(C(=O)N3CCc4[nH]cnc4C3c3nc4ccc(F)cc4s3)cnn2c1 (stereo not shown) | 1 to 5 |
| O=C(c1ncn2ccccc12)N1CCc2[nH]cnc2C1c1nc2ccc(F)cc2s1 (stereo not shown) | 1 to 5 |
| O=C(c1ccno1)N1CCc2[nH]cnc2C1c1nc2cccc(F)c2s1 (stereo not shown) | 1 to 5 |

Continued, values first:

| AC50 [µM] | SMILES |
| --- | --- |
| 1 to 5 | O=C(CCc1nccs1)N1CCc2nc[nH]c2C1c1nc2cc(Cl)ccc2s1 (stereo not shown) |
| 1 to 5 | O=C(Cc1nccs1)N1CCc2[nH]cnc2C1c1nc2ccc(Br)cc2s1 (stereo not shown) |
| 1 to 5 | O=C(Cc1nc(C(F)(F)F)cs1)N1CCc2[nH]cnc2C1c1nc2ccc(F)cc2s1 (stereo not shown) |
| 1 to 5 | O=C(Cc1nccs1)N1CCc2[nH]cnc2C1c1nc2ccc(F)cc2s1 (stereo not shown) |
| > 5 | Cc1nnc(CC(=O)N2CCc3[nH]cnc3C2c2nc3ccc(F)cc3s2)s1 (stereo not shown) |
| 1 to 5 | O=C(Cc1nccs1)N1CCc2[nH]cnc2C1c1nc2cccc(F)c2s1 (stereo not shown) |
| 1 to 5 | O=C(c1nc2ccccc2s1)N1CCc2[nH]cnc2C1c1nc2cccc(F)c2s1 (stereo not shown) |
| 1 to 5 | O=C(c1cnc(COc2ccccc2)s1)N1CCc2[nH]cnc2C1c1nc2ccccc2s1 (stereo not shown) |
| 1 to 5 | Cc1ncc(C(=O)N2CCc3[nH]cnc3C2c2nc3ccccc3s2)o1 (stereo not shown) |
| > 5 | O=C(c1cnn2cc(C=Cc3ccccc3)ccc12)N1CCc2[nH]cnc2C1c1nc2ccccc2s1 (stereo not shown) |
| 1 to 5 | O=C(c1cnn2cc(Cc3ccccc3)ccc12)N1CCc2[nH]cnc2C1c1nc2ccccc2s1 (stereo not shown) |
| 1 to 5 | O=C(c1cnn2cc(Br)ccc12)N1CCc2[nH]cnc2C1c1nc2cc(F)ccc2s1 (stereo not shown) |
| 1 to 5 | O=C(c1cnn2cc(Cl)ccc12)N1CCc2[nH]cnc2C1c1nc2ccc(F)cc2s1 (stereo not shown) |
| 1 to 5 | O=C(c1cnn2cc(Cl)ccc12)N1CCc2nc[nH]c2C1c1nc2cc(F)ccc2s1 (stereo not shown) |
| 1 to 5 | O=C(c1nccs1)N1CCc2[nH]cnc2C1c1nc2c(Br)cccc2s1 (stereo not shown) |
| 1 to 5 | O=C(c1cnn2cccc(F)c12)N1CCc2[nH]cnc2C1c1nc2c(F)cccc2s1 (stereo not shown) |
| 1 to 5 | O=C(c1nccs1)N1CCc2[nH]cnc2C1c1nc2ccc(Br)cc2s1 (stereo not shown) |
| 1 to 5 | O=C(c1cnn2ccccc12)N1CCc2[nH]cnc2C1c1nc2ccc(Br)cc2s1 (stereo not shown) |
| 1 to 5 | O=C(c1nncs1)N1CCc2[nH]cnc2C1c1nc2ccc(F)cc2s1 (stereo not shown) |
| 1 to 5 | O=C(c1cnn2cccc(F)c12)N1CCc2[nH]cnc2C1c1nc2ccc(F)cc2s1 (stereo not shown) |
| 1 to 5 | Cc1nnc(C(=O)N2CCc3[nH]cnc3C2c2nc3ccc(F)cc3s2)s1 (stereo not shown) |
| 1 to 5 | O=C(c1n[nH]c2ccccc12)N1CCc2[nH]cnc2C1c1nc2cccc(F)c2s1 (stereo not shown) |
